Drawing on PubChem BioAssay (NCI), this text covers TGI and GI50 for 18 compounds.

Assay in all cases: NCI tumour cell line growth inhibition, 48 h
Assay [1] has as its system UACC-62 melanoma.
In assay [2] the test system is NCI-H23 lung.
In assay [3] the test system is SNB-19 CNS.
For assay [4], the system named is BT-549 breast.
Assay [5] has as its system MDA-MB-435.
Assay [6] deals with ACHN renal.
The subject of assay [7] is MCF7 breast.
In assay [8] the test system is DU-145 prostate.
For assay [9], the system named is SF-295 CNS.
The subject of assay [10] is SK-MEL-5 melanoma.

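Method: 48-hour compound exposure of cells in 96-well plates, five concentrations, linear interpolation of endpoints. At the GI50, growth is halved. TGI: concentration producing complete growth inhibition.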 Bounds are passed on as bounds.

In the case of `CC1=Cc2ccc(C)cc2C(=O)C1=O`, the TGI came out at 40.3 µM in assay [1]; 45.3 µM in [2]; 45.2 µM in assay [3]; 49.1 µM in [4]; 4.27 µM in [5]; 4.14 µM in assay [6]. Further, the TGI was found to be 54.5 µM in assay [7], 35.3 µM in assay [8], 34.7 µM in assay [9] and 42.2 µM in assay [10].

As to `Cc1nc(Nc2cccnc2)sc1C(=O)/C=C/c1ccc(Cl)cc1`, the GI50 in assay [1] was 2.32 µM; in [2] it was 3.43 µM; in assay [3], 2.31 µM; in assay [4] it was 2.2 µM; in assay [5] it was 2.26 µM; in [7], 1.92 µM. Besides, the GI50 in assay [8] was 3.57 µM; in assay [9] it was 2.79 µM; in assay [10], 4.59 µM. The TGI in assay [1] came out at 5.84 µM; in assay [2], 40.8 µM; in assay [3] it was 5.99 µM; in [4] it was 7.22 µM; in assay [5], 6.46 µM; in assay [7], 10.7 µM. Further, the figures for the TGI in [8], in assay [9] and in assay [10] were 19.8 µM, 19.1 µM and 35.5 µM, respectively.

With `CCN(c1cc(-c2ccc(CN3CCOCC3)cc2)cc(C(=O)NCc2c(C)cc(C)[nH]c2=O)c1C)C1CCOCC1`, the GI50 in assay [1] is 16 µM; in [2] it was 59.4 µM; in assay [3] it was 37.4 µM; in assay [4], 17.3 µM; in assay [5] it was 17.4 µM; in assay [6] it was 26 µM. Besides, the GI50 in assay [7] was 24.2 µM; in assay [8], 40.6 µM; in assay [9] it was 26.2 µM; in assay [10] it was 16.3 µM. The TGI in [1] is 31.6 µM; in [2] it was > 100 µM; in [3], > 84.5 µM; in [4] it was 37.4 µM; in [5] it was 34.6 µM; in assay [6] it was 74.9 µM. Further, the TGI in [7] is > 100 µM; in [8] it was > 100 µM; in assay [9], 71.3 µM; in assay [10], 31.7 µM.

Take `O=c1[nH]c2nc(NC3CCOCC3)ncc2cc1Oc1ccc(F)cc1F`: the GI50 in assay [1], in assay [2], in assay [3], in assay [4], in [5] and in assay [6] was > 25 µM each time. In addition, the GI50 in assay [7], in assay [8], in assay [9] and in assay [10] was > 25 µM each time. The TGI in [1], in [2], in [3], in assay [4], in [5] and in assay [6] was > 25 µM throughout. Besides, the TGI in assay [7], in [8], in assay [9] and in assay [10] was > 25 µM each time.

In the case of `O=C(Nc1ccc(-c2nc(-c3cccc(OCCN4CCOCC4)c3)c(-c3ccnc(Br)c3)[nH]2)cc1)c1ccccc1`, the GI50 was 1.91 µM in assay [1]; 2.47 µM in assay [2]; 2.19 µM in [3]; 2.71 µM in assay [4]; 1.69 µM in [5]; 3.55 µM in [6]. Also, the GI50 in assay [7] was 0.74 µM; in [8], 6.74 µM; in assay [10] it was 1.77 µM. In addition, the TGI is 6.19 µM in [1]; 8.78 µM in assay [2]; 9.07 µM in assay [3]; > 100 µM in assay [4]; 3.76 µM in [5]; > 100 µM in assay [6]. Also, the TGI in [7] is 3.14 µM; in assay [8], > 100 µM; in [10], 3.21 µM.

As to `O=C1/C(=C/c2ccccc2)CN(C(=O)CCN2CCCC2)C/C1=C\c1ccccc1`, the TGI was determined as 3.45 µM in assay [1]; 4.35 µM in assay [2]; 6.69 µM in assay [3]; 3.77 µM in [4]; 3.24 µM in assay [5]; 4.78 µM in assay [6]. The TGI came out at 2.63 µM in assay [7], 18.1 µM in assay [8], 2.6 µM in assay [9] and 3.48 µM in assay [10].

As for `O=C(NCCc1ccccn1)OCc1nc2nc(Cl)nc(N3CCOCC3)c2[nH]1`, the GI50 in [1] is 1.53 µM; in assay [2], 1.77 µM; in assay [3], 4.58 µM; in assay [4], 2.22 µM; in assay [5] it was 1.33 µM; in assay [6], 1.29 µM. Further, the GI50 in assay [7] was 1.59 µM; in assay [8] it was 1.57 µM; in assay [9], 4.96 µM; in [10], 2.1 µM. Moreover, the TGI in assay [1] came out at 3.03 µM; in assay [2] it was 4.14 µM; in [3], 16.5 µM; in assay [4], 6.83 µM; in [5], 2.78 µM; in [6], 2.55 µM. The TGI worked out at 5.17 µM in assay [7], 3.04 µM in [8], 17.4 µM in assay [9] and 4.54 µM in [10].

On to `COc1ccc(C(O)c2cc3c(N)c(C(=O)Nc4cccc(Cl)c4)sc3nc2C)cc1` (stereo not drawn), for which the GI50 in [1] was 2.14 µM; in [2], 1.82 µM; in assay [3], 1.47 µM; in assay [4] it was 2.09 µM; in assay [5], 0.0371 µM; in [6], 2.3 µM. The GI50 in assay [7] is 1.11 µM; in [8], 1.16 µM; in assay [9], 1.12 µM; in [10], 1.17 µM. Besides, the TGI is > 80.2 µM in assay [1]; > 50.1 µM in [2]; > 46.8 µM in assay [3]; > 38.5 µM in [4]; 0.262 µM in assay [5]; > 42.4 µM in assay [6]. Also, the TGI in [7] was > 67.2 µM; in [8] it was > 22 µM; in assay [9], > 22.7 µM; in [10] it was > 32 µM.

With `C1CC2CN(CCCN3CCOCC3)C(C1)O2` (stereo not drawn), the TGI in assay [1], in assay [2], in assay [3], in assay [4], in assay [5] and in assay [6] was > 100 µM each time. For the same compound, the TGI in assay [7], in assay [8], in assay [9] and in assay [10] was > 100 µM throughout.

Regarding `c1ccc(-c2nc(N3CCOCC3)c3c4c(sc3n2)CCCCCC4)nc1`, the GI50 in assay [1] was 3.44 µM; in [2] it was 5.99 µM; in [3], 8.36 µM; in [4], 4.38 µM; in [5] it was 4.82 µM; in assay [6], 4.49 µM. Besides, the GI50 in assay [7] is 3.04 µM; in assay [8], 6.93 µM; in [9], 3.39 µM; in assay [10], 1.99 µM. The TGI is 14.3 µM in assay [1]; 26.5 µM in [2]; 21.6 µM in assay [3]; 16.7 µM in assay [4]; 17.7 µM in assay [5]; 16.6 µM in assay [6]. Moreover, the TGI was 12.8 µM in assay [7], 19.6 µM in assay [8], 15.8 µM in assay [9] and 9.45 µM in [10].

On to `Cc1nn2c(/C=C3/C(=O)Nc4cc(Cl)ccc43)c(-c3ccccc3)nc2s1`, for which the GI50 is 3.68 µM in assay [2]; 10.7 µM in [3]; 6.63 µM in [4]; 3.72 µM in [5]; 1.54 µM in assay [6]; 5.84 µM in [7]. Moreover, the figures for the GI50 in [8], in assay [9] and in assay [10] were 4.02 µM, 11.1 µM and 3.17 µM, respectively. Also, the TGI was > 100 µM in assay [2]; > 100 µM in assay [3]; > 100 µM in assay [4]; > 100 µM in [5]; 3.08 µM in [6]; > 100 µM in assay [7]. Further, the TGI in [8] is 18.2 µM; in assay [9] it was 38.1 µM; in assay [10], > 100 µM.

Turning to `Cc1ccc(S(=O)(=O)c2nc(-c3ccccc3)oc2S(C)=O)cc1` (stereo not drawn), the GI50 in assay [1] is 1.5 µM; in [2], 1.91 µM; in assay [3], 3.35 µM; in [4], 1.71 µM; in [5], 1.53 µM; in [6] it was 1.52 µM. The GI50 in assay [7] is 1.21 µM; in [8] it was 1.25 µM; in [9], 10 µM. The TGI in [1] came out at 2.87 µM; in assay [2], 3.97 µM; in assay [3] it was 11.2 µM; in [4], 3.37 µM; in assay [5], 3.04 µM; in assay [6] it was 2.88 µM. In addition, the TGI came to 3.62 µM in assay [7], 2.63 µM in [8] and 22.2 µM in [9].

As to `C1CC[N-]CC1.CC(=N\O)/C(C)=N/O.CC(=N\O)/C(C)=N/O.OC1[CH-]CCCC1.[Co+2]`, the GI50 in assay [1] is 18.1 µM; in assay [3] it was > 100 µM; in assay [4], 37.8 µM; in assay [5], 33.9 µM; in assay [6], 76.3 µM; in assay [7] it was 38.7 µM. Further, the values for the GI50 in assay [8], in assay [9] and in assay [10] were 69.1 µM, > 100 µM and 34.6 µM, respectively. Besides, the TGI in assay [1] was 41.2 µM; in assay [3] it was > 100 µM; in assay [4], > 100 µM; in assay [5], > 100 µM; in [6], > 100 µM; in [7] it was > 100 µM. Moreover, the TGI in [8], in assay [9] and in [10] was > 100 µM in each case.

Regarding `COC(=O)C1=C(C(=O)OC)C2(C)C=CC1O2` (stereo not drawn), the TGI in [1] is 31.9 µM; in assay [2], 32.4 µM; in assay [3], > 100 µM; in assay [4], 46 µM; in assay [5], 33.2 µM; in [6], 18.7 µM. In addition, the figures for the TGI in [7], in assay [8] and in assay [10] were > 100 µM, 31.8 µM and 32.8 µM, respectively.

For `COc1ccc(-c2nc(-c3nc4ccc(F)cc4[nH]3)c3ccccn23)cc1`, the GI50 is 5.41 µM in assay [1]; 18.7 µM in [2]; 11.2 µM in assay [3]; 4.84 µM in assay [4]; 8.05 µM in assay [5]; 4.28 µM in assay [6]. Moreover, the GI50 was 6.15 µM in assay [7], 10.7 µM in assay [8] and 2.2 µM in assay [10]. For the same compound, the TGI in [1] is 36.1 µM; in assay [2], > 100 µM; in assay [3], 58.6 µM; in assay [4] it was 22.9 µM; in assay [5] it was > 100 µM; in [6] it was 25.9 µM. The TGI in assay [7] is > 100 µM; in assay [8] it was 40.2 µM; in assay [10], 6.71 µM.

As for `c1ccc2c(c1)SCCCSCCSCCCS2`, the TGI in assay [1], in assay [2], in [3], in [4], in assay [5] and in assay [7] was > 100 µM each time. The TGI in assay [8], in [9] and in assay [10] was > 100 µM throughout.

On to `COc1cc(NC(=O)CCSc2nc3ccc(C)cc3c(=O)n2Cc2ccccc2)cc(OC)c1OC`, for which the GI50 is 15.7 µM in assay [1]; 26.6 µM in assay [2]; 3.17 µM in [3]; 5.02 µM in assay [4]; > 100 µM in [5]; 3.72 µM in assay [6]. The GI50 is 32 µM in assay [7], 66 µM in assay [8] and 32.4 µM in [10]. The TGI in assay [1] is > 100 µM; in assay [2], > 100 µM; in assay [3], 18.5 µM; in assay [4], > 100 µM; in assay [5], > 100 µM; in assay [6] it was 34.9 µM. Besides, the TGI in [7], in assay [8] and in assay [10] was > 100 µM each time.

As to `COc1cc(C)c(C2NC(=O)c3ccccc3N2)cc1C` (stereo not drawn), the TGI is > 100 µM in [1]; > 70.2 µM in assay [2]; 71.4 µM in [4]; 0.209 µM in [5]; > 95.4 µM in [6]; > 89 µM in assay [7]. The TGI amounted to 11.6 µM in assay [8], 22.4 µM in [9] and 5.49 µM in assay [10].
